For orientation: Cmax means the maximum level reached in the sampled fluid or tissue.

Values after ≈ are worked out from the molar mass of the structure shown. Where a name gives a salt, the structure may show the parent alone. Read-outs that look alike come from different tables or passages of the source.

The conditions of data set [1]: cited from earlier work.
The nature of data set [2]: conductivity of complexes in aqueous solutions. As to conditions: aqueous solution pH≅5.8, 23° C.
A short description of data set [3]: in vivo colonic absorption using flushed ligated colonic model in rats. The conditions noted are these: 10 mg/rat intubated into ligated colon.
The conditions of data set [4]: in vivo.
For data set [5] the following is noted: for macroscopic evaluation of the G.I. tract for signs of irritation: end of oral gavage study; for time of plasma concentration maximum after treatment: rat, in vivo, po.
A short description of data set [6]: in vivo. As to conditions: male, Sprague-Dawley, rat, plasma, other: intracolonic bolus, ligated colon, 10 mg/rat.
The nature of data set [7]: in vivo. The conditions noted are these: Sprague-Dawley, rat, plasma, iv, 2 mg/kg.
Data set [8] in a line: intravenous administration of metformin HCl to rats. As to conditions: for Metformin base plasma concentration, Average / Metformin base plasma concentration, Rat2 / Metformin base plasma concentration, Rat3 / Metformin base plasma concentration, Rat1: 2 mg/kg intravenously.
Data set [9] in a line: in vivo. The conditions noted are these: rat, po, 40 mg/kg.

Turning to `CCCCCCCCCCCC(=O)O` [Lauric (12), lauric acid], in data set [1] (20° C.), the “Solubility in Acetic acid” value was 818 mg/mL (≈ 4080 mM), the “Solubility in Acetone” value was 605 mg/mL (≈ 3020 mM), the “Solubility in Acetonitrile” value was 76 mg/mL (≈ 379 mM) and the “Solubility in Benzene” value was 936 mg/mL (≈ 4670 mM). For the same compound, in data set [1] (20° C.), the “Solubility in Chloroform” value was 830 mg/mL (≈ 4140 mM), the “Solubility in Cyclohexanne” value was 680 mg/mL (≈ 3390 mM), the “Solubility in Ethanol 95%” value was 912 mg/mL (≈ 4550 mM) and the “Solubility in Methanol” value is 1200 mg/mL (≈ 5990 mM).

For the compound Metformin oleate, the Conductivity in [2] (metformin concentration 5 mM) is 136 μS/cm; in [2] (metformin concentration 10 mM), 235 μS/cm; in [2] (metformin concentration 20 mM) it was 405 μS/cm. The “Area Under the Curve (0-4 hrs, based on 1 mg base/rat)” value in data set [3] was 408.3 ng · h/mL-mg.

As for `CCCCCCCCCC(=O)O.CN(C)C(=N)N=C(N)N` [Metformin caprate], the “Area Under the Curve (0-4 hrs, based on 1 mg base/rat)” value in [4] is on record as 548.0 ng · h/mL-mg.

Turning to `CCCCCCCCCCCC(=O)O.CN(C)C(=N)N=C(N)N` [Metformin laurate], in data set [5], the “macroscopic evaluation of the G.I. tract for signs of irritation” value is reported as “No irritation” and the “time of plasma concentration maximum after treatment” value is “about 1 hour”. The “Area Under the Curve (0-4 hrs, based on 1 mg base/rat)” value in data set [4] stood at 674.5 ng · h/mL-mg.

Turning to `CN(C)C(=N)N=C(N)N` [Metformin HCl, metformin hydrochloride], the concentration at 0 h in the data set “in vivo [6]” and in the data set “in vivo [7]” was 0 ng/mL in each case. Moreover, in “in vivo [7]”, the concentration at 1 h came out at 35.5 ng/mL. The concentration at 2 h in “in vivo [7]” came to 0 ng/mL. This compound also showed a concentration at 3 h in the data set “in vivo [7]” of 0 ng/mL. The “Area Under the Curve (0-4 hrs, based on 1 mg base/rat)” value in data set [3] turned out to be 29.2 ng · h/mL-mg; in data set [8] (i.v.), 692.5 ng · h/mL-mg. For the same compound, the “Metformin base plasma concentration, Average” value is reported as 0.0 ng/mL in data set [8] (Time 0 h); 2483.3 ng/mL in data set [8] (Time 2 min); 229.2 ng/mL in data set [8] (Time 0.5 h); 30.4 ng/mL in data set [8] (Time 1 h); 22.1 ng/mL in data set [8] (Time 1.5 h); 0.0 ng/mL in [8] (Time 2 h). Further, in [8] (Time 3 h), the “Metformin base plasma concentration, Average” value turned out to be 0.0 ng/mL. The “Metformin base plasma concentration, Rat2” value in data set [8] (Time 0 h) came to 0 ng/mL; in data set [8] (Time 2 min), 2370 ng/mL; in [8] (Time 0.5 h), 331 ng/mL; in data set [8] (Time 1.5 h), 66.3 ng/mL; in data set [8] (Time 2 h), 0 ng/mL; in data set [8] (Time 3 h) it was 0 ng/mL. The “Metformin base plasma concentration, Rat3” value in data set [8] (Time 0 h) was 0 ng/mL; in data set [8] (Time 2 min), 3650 ng/mL; in data set [8] (Time 0.5 h), 94.7 ng/mL; in data set [8] (Time 1 h), 25.2 ng/mL; in data set [8] (Time 1.5 h), 0 ng/mL; in [8] (Time 2 h), 0 ng/mL. In addition, the “Metformin base plasma concentration, Rat3” value in data set [8] (Time 3 h) turned out to be 0 ng/mL. Further, the “Metformin base plasma concentration, Rat1” value in data set [8] (Time 2 min) is recorded as 1430 ng/mL; in data set [8] (Time 0.5 h), 262 ng/mL; in data set [8] (Time 1.5 h), 0 ng/mL. Moreover, the “macroscopic evaluation of the G.I. tract for signs of irritation” value in [5] is “No irritation”. Further, the “time of plasma concentration maximum after treatment” value in data set [5] is listed as “about 1 hour”. In addition, in the data set “in vivo [9]”, the peak concentration (Cmax) was roughly 4080 ng/mL.

Take `CCCCCCCCCCCCCC(=O)O` [myristic (14), myristic acid]: in data set [1], the “Solubility in Acetic acid” value was 102 mg/mL (≈ 447 mM), the “Solubility in Acetone” value is 159 mg/mL (≈ 696 mM), the “Solubility in Acetonitrile” value is 18 mg/mL (≈ 78.8 mM) and the “Solubility in Benzene” value is 292 mg/mL (≈ 1280 mM). Also, in data set [1], the “Solubility in Chloroform” value is 325 mg/mL (≈ 1420 mM), the “Solubility in Cyclohexanne” value was 215 mg/mL (≈ 941 mM), the “Solubility in Ethanol 95%” value is 189 mg/mL (≈ 828 mM) and the “Solubility in Methanol” value was 173 mg/mL (≈ 758 mM).

The values are drawn from patent US20050158374A1, “Compositions and dosage forms for enhanced absorption of metformin” (priority 2003, published 2005).
